pIC50: −log10 of the molar value.

The experiment deals with IDO1 (Homo sapiens, UniProt P14902). Briefly: IDO1 Cellular Assay in Hela Cells Stimulated with IFNγ. The experiment is classed as cell-based. As to conditions: IFNγ 100 ng/mL, 300 uM L-tryptophan, about 48 hours, fluorescence readout, read-out: IDO1 HELA Cell Assay, IC50. The procedure: Biological Assays IDO1 Cellular Assay in Hela Cells Stimulated with IFNγ
Chain of IDO1 (P14902 whole entry): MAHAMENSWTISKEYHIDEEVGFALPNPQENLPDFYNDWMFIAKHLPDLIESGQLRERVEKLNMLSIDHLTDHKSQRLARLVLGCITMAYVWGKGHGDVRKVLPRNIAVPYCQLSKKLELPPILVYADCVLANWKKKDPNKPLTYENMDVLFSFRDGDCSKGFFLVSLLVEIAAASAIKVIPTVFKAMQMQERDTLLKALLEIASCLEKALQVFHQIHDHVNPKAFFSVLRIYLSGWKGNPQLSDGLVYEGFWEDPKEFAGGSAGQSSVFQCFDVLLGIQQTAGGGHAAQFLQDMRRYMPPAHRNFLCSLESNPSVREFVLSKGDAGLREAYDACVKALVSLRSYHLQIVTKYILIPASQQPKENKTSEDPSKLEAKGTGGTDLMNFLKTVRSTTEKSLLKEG
Hela cells were cultured in complete Hela culture medium ([…], 10% heat-inactivated fetal bovine serum) and expanded to about 1×10^9 cells. The cells were then collected and frozen down at 10×10^6 cells/vial in 1 mL frozen medium (90% complete Hela culture medium, 10% DMSO).
Compounds to be tested were serially diluted in ten 3-fold steps in DMSO starting from 10 mM DMSO stocks in Echo low volume plate(s). Compound dilutions or DMSO alone were then dispensed from the dilution plate(s) into Greiner black 384-well assay plate(s) (catalog #781086, 50 nL/well) using an Echo 550 acoustic liquid handler (Labcyte).
Frozen Hela cells were thawed and transferred into Hela assay medium (99% complete Hela culture medium, 1% Pen/Strep) with 20 mL medium/vial of cells. The cells were spun down at 250 g in a table top centrifuge for 5 min and suspended in same volume of Hela assay medium. […] Sterile L-tryptophan were added to the cells with final concentration of 300 uM L-tryptophan. A small aliquot (2 mL/plate) of Hela cells were set aside and were not treated with IFNγ, to serve as the Max-E control. The rest of Hela cells were added with sterile IFNγ (Cat #285-IF, R & D systems) with a final concentration of 100 ng/mL.
Hela cells with and without IFNγ were dispensed to the respective wells of 384-well assay plates containing the compounds. The plates were incubated for about 48 hours at a 37° C., 5% CO2 incubator. Afterwards, 12 μL of 0.5 M methyl isonipecotate in dimethyl sulfoxide were added into each well and the plates were sealed and incubated at 37° C. without CO2 overnight. The plates were centrifuged for 1 min at 200×g. The resulting fluorescence was measured in a Spectramax plate reader (Molecular Devices) with a 400 nm excitation filter and a 510 nm emission filter.
Potencies were calculated by […] least squares fit to the four parameter logistic IC50 equation.
With `C[C@@H](C(=O)Nc1cnc(F)c(F)c1)C12CC(NC(=O)c3ccc(Cl)c(Cl)c3)(C1)C2` [Example 88, (R)-3,4-Dichloro-N-(3-(1-((5,6-difluoropyridin-3-yl)amino)-1-oxopropan-2-yl)bicyclo[1.1.1]pentan-1-yl)benzamide], the pIC50 (usually the negative decadic logarithm of the IC50, by convention in mol/L) is 6.50.
For the compound `CC(C(=O)Nc1ccc(Cl)cc1)C12CC(NC(=O)c3cccc(Cl)c3)(C1)C2` (single isomer, unassigned) [Example 6, 3-Chloro-N-(3-(1-((4-chlorophenyl)amino)-1-oxopropan-2-yl)bicyclo [1.1.1]pentan-1-yl) Benzamide], the pIC50 is 7.41.
In the case of `Cc1cc(C(=O)NC23CC([C@@H](C)C(=O)Nc4ccc(F)cc4)(C2)C3)ccc1Cl` [Example 37, 4-chloro-N-[3-[(1R)-2-(4-fluoroanilino)-1-methyl-2-oxo-ethyl]-1-bicyclo[1.1.l]pentanyl]-3-methyl-benzamide] it was 6.87; in that of `C[C@H](C(=O)Nc1ccc(F)cc1)C12CC(NC(=O)c3ccnc(C(F)(F)F)c3)(C1)C2` [Example 66, N-[3-[(1S)-2-(4-fluoroanilino)-1-methyl-2-oxo-ethyl]-1-bicyclo[1.1.1]pentanyl]-2-(trifluoromethyl)pyridin-1-ium-4-carboxamide], 7.88; in that of `COc1cc(C(=O)NC23CC([C@H](C)C(=O)Nc4ccc(F)cc4)(C2)C3)ccc1F` [Example 67, 4-fluoro-N-[3-[(1S)-2-(4-fluoroanilino)-1-methyl-2-oxo-ethyl]-1-bicyclo[1.1.1]pentanyl]-3-methoxy-benzamide], 7.01.
In the case of `Cc1ccc(C(=O)NC23CC([C@H](C)C(=O)Nc4ccc(F)cc4)(C2)C3)nc1C` [Example 64, N-[3-[(1S)-2-(4-fluoroanilino)-1-methyl-2-oxo-ethyl]-1-bicyclo[1.1.1]pentanyl]-5,6-dimethyl-pyridin-1-ium-2-carboxamide] it was 7.94; in that of `Cc1nc(C(=O)NC23CC(C(C)C(=O)Nc4ccc(F)cc4)(C2)C3)cs1` (stereo not drawn) [Example 123, N-[3-[2-(4-fluoroanilino)-1-methyl-2-oxo-ethyl]-1-bicyclo[1.1.1]pentanyl]-2-methyl-thiazole-4-carboxamide], 6.83.
For the compound `C[C@@H](C(=O)Nc1ccc(F)cc1)C12CC(NC(=O)OC(C)(C)C)(C1)C2` (single isomer, unassigned) [Example 31], the pIC50 was less than 5.00.
In the case of `O=C(NC12CC(C3(C(=O)Nc4ccc(F)cc4)CCC3)(C1)C2)c1cccc(Cl)c1` [Example 3, 3-Chloro-N-(3-(1-((4-fluorophenyl)carbamoyl)cyclobutyl)bicyclo [1.1.1]pentan-1-yl) Benzamide] it was 8.20; in that of `Cc1cc(C(=O)NC23CC([C@H](C)C(=O)Nc4ccc(F)cc4)(C2)C3)ccc1F` [Example 54, 4-fluoro-N-[3-[(1S)-2-(4-fluoroanilino)-1-methyl-2-oxo-ethyl]-1-bicyclo[1.1.1]pentanyl]-3-methyl-benzamide], 6.73; in that of `CC(C(=O)Nc1ccc(F)cc1)C12CC(NC(=O)c3cccc4cnccc34)(C1)C2` (stereo not drawn) [Example 134, N-[3-[2-(4-fluoroanilino)-1-methyl-2-oxo-ethyl]-1-bicyclo[1.1.1]pentanyl]isoquinolin-2-ium-5-carboxamide], 6.57.
For the compound `C[C@H](C(=O)Nc1ccc(F)c(F)c1)C12CC(NC(=O)c3ccc(Cl)c(Cl)c3)(C1)C2` [Example 97, (S)-3,4-dichloro-N-(3-(1-((3,4-difluorophenyl)amino)-1-oxopropan-2-yl)bicyclo[1.1.1]pentan-1-yl)benzamide], the pIC50 is 6.59.
As for `C[C@@H](C(=O)Nc1ccc(F)c(F)c1)C12CC(NC(=O)c3ccc(Cl)c(Cl)c3)(C1)C2` [Example 91, (R)-3,4-dichloro-N-(3-(1-((3,4-difluorophenyl)amino)-1-oxopropan-2-yl)bicyclo[1.1.1]pentan-1-yl)benzamide], the figure is 6.91; as for `C[C@H](C(=O)Nc1ccc(F)c(C(F)(F)F)c1)C12CC(NC(=O)c3ccc(Cl)c(Cl)c3)(C1)C2` [Example 95, (S)-3,4-dichloro-N-(3-(1-((4-fluoro-3-(trifluoromethyl)phenyl)amino)-1-oxopropan-2-yl)bicyclo[1.1.1]pentan-1-yl)benzamide], 7.22; as for `C[C@@H](C(=O)Nc1ccc(F)cc1)C12CC(NC(=O)c3ccc(F)c(F)c3)(C1)C2` [Example 43, 3,4-difluoro-N-[3-[(1R)-2-(4-fluoroanilino)-1-methyl-2-oxo-ethyl]-1-bicyclo[1.1.1]pentanyl]benzamide], 6.82.
As for `CC(C(=O)Nc1ccc(Cl)cc1)C12CC(NC(=O)OC3CC3)(C1)C2` (single isomer, unassigned) [Example 19, Cyclopropyl (3-(1-((4-chlorophenyl)amino)-1-oxopropan-2-yl)bicyclo [1.1.1]pentan-1-yl) carbamate], the figure is 6.25.
In the case of `Cc1cccc(C(=O)NC23CC(C(C)C(=O)Nc4ccc(F)cc4)(C2)C3)n1` (stereo not drawn) [Example 119, N-[3-[2-(4-fluoroanilino)-1-methyl-2-oxo-ethyl]-1-bicyclo[1.1.1]pentanyl]-6-methyl-pyridin-1-ium-2-carboxamide] it was 6.95; in that of `C[C@@H](C(=O)Nc1ccc(C(F)(F)F)cc1)C12CC(NC(=O)c3ccc(Cl)c(Cl)c3)(C1)C2` [Example 92, (R)-3,4-dichloro-N-(3-(1-oxo-1-((4-(trifluoromethyl)phenyl)amino)propan-2-yl)bicyclo[1.1.1]pentan-1-yl)benzamide], 8.19.
Turning to `CC(C(=O)Nc1ccc(F)cc1)C12CC(NC(=O)c3cc(C4CC4)on3)(C1)C2` (stereo not drawn) [Example 120, 5-cyclopropyl-N-[3-[2-(4-fluoroanilino)-1-methyl-2-oxo-ethyl]-1-bicyclo[1.1.1]pentanyl]isoxazole-3-carboxamide], the pIC50 was 6.90.
As for `CC(C(=O)Nc1ccc(F)cc1)C12CC(NC(=O)c3cccc4cncn34)(C1)C2` (stereo not drawn) [Example 111, N-[3-[2-(4-fluoroanilino)-1-methyl-2-oxo-ethyl]-1-bicyclo[1.1.1]pentanyl]imidazo[1,5-a]pyridin-2-ium-5-carboxamide], the figure is 7.47; as for `C[C@H](C(=O)Nc1ccc(F)cc1)C12CC(NC(=O)c3ccc(Cl)nc3)(C1)C2` [Example 60, 6-chloro-N-[3-[(1S)-2-(4-fluoroanilino)-1-methyl-2-oxo-ethyl]-1-bicyclo[1.1.1]pentanyl]pyridin-1-ium-3-carboxamide], 6.80; as for `Cc1cc(C(=O)NC23CC([C@H](C)C(=O)Nc4ccc(F)cc4)(C2)C3)ccc1C#N` [Example 151, (S)-4-cyano-N-(3-(1-((4-fluorophenyl)amino)-1-oxopropan-2-yl)bicyclo[1.1.1]pentan-1-yl)-3-methylbenzamide], 7.25.
In the case of `Cc1cncc(C(=O)NC23CC(C(C)C(=O)Nc4ccc(F)cc4)(C2)C3)c1` (stereo not drawn) [Example 122, N-[3-[2-(4-fluoroanilino)-1-methyl-2-oxo-ethyl]-1-bicyclo[1.1.1]pentanyl]-5-methyl-pyridin-1-ium-3-carboxamide] it was 6.88.
Take `O=C(NC1(C23CC(NC(=O)c4nc(C5CC5)no4)(C2)C3)CC1)c1ccc(F)cc1` [Example 29, 3-cyclopropyl-N-(3-(1-(4-fluorobenzamido)cyclopropyl)bicyclo[1.1.1]pentan-1-yl)-1,2,4-oxadiazole-5-carboxamide]: the pIC50 is 6.56.
